Results as given in US20250108119A1, “NOVEL STEROID PAYLOADS, STEROID LINKERS, ADCs CONTAINING AND USE THEREOF” (IMMUNEXT, INC., priority 2021, published 2025).
Entries after “also recorded” stand apart in the source; their conditions may differ.

What was measured:
[1] = test system: LPS stimulated human PBMCs; test: LPS stimulated human PBMC, IL-1β and IL-6 ELISA; format: cell-based; conditions: for inhibition of IL-1β and IL-6: Experiment 12: free payloads 1000-0.15 nM
Procedure: The potency of novel steroids was assessed in a model of LPS stimulated human peripheral blood mononuclear cells (PBMCS). Stimulated PBMCs in this assay produce multiple pro-inflammatory cytokines1.
In all the following experiments, human PBMC, isolated from 1-2 healthy donors per study, were stimulated with LPS to induce cytokine production.
LPS was added either immediately after addition of free payload, or in the case of conjugates, four hours after addition of the conjugate.
Cells were plated in flat bottom 96 well plates at a final concentration of 150,000 cells/well, with technical duplicates for each condition.
Test agents were serially diluted in the assay media and added to a final concentration of 1,000 nM-1 nM or 0.2 nM depending on the assay or as a no treatment control.
LPS stimulation was added to a final concentration of 1 ng/ml.
Human IL-1β and IL-6 ELISA kits were used on supernatants according to vendor protocols. All graphs were prepared with GraphPad (Prism).

[2] = test system: human PBMC; test: Cytokine production (IL-1β, IL-6) at 24 hr by human PBMC incubated with 1 ng/mL LPS; format: cell-based; conditions: free steroid payloads, serial dilutions, 1 ng/mL LPS, 24 hr
Procedure: (§1) FIG. 51: INX-SM-3, INX-SM-4, and INX-SM-1 inhibit IL-1β (left) and IL-6 (right) production. Cytokine levels were measured at 24 hr for human PBMCS incubated with 1 ng/mL LPS and serial dilutions (1000-1 nM) of steroid payloads, with the no treatment control plotted on the log-scale x-axis at <1 nM; n=1 donor, standard deviation plotted from technical duplicates.
as §1, with “52: INX-SM-1,” for “51:”, “INX-SM-4” for “INX-SM-4,”, “INX-SM-6” for “INX-SM-1”, “IL-1β” for “IL-1β (left) and IL-6 (right)”, “levels” for “levels were”, “ng/ml” for “ng/mL”
(§2) FIG. 53: INX-SM-9, INX-SM-31 and INX-SM-35 inhibit IL-1β (top) and IL-6 (bottom) production. Cytokine levels measured at 24 hr for human PBMCS incubated with 1 ng/mL LPS and serial dilutions (1000-0.2 nM) of steroid payloads, with the no treatment control plotted on the log-scale x-axis at <0.2 nM; n=2 donors-representative donor shown. Standard deviation plotted from technical duplicates.
as §2, with “54: INX-SM-32 inhibits” for “53: INX-SM-9, INX-SM-31 and INX-SM-35 inhibit”, “(500-1” for “(1000-0.2”, “<1” for “<0.2”, “n=2. Representative” for “n=2 donors-representative”
Cytokine levels measured at 24 hr for human PBMCS incubated with 1 ng/ml LPS and serial dilutions (1000-0.5 nM) of steroid payloads, with the no treatment control plotted on the log-scale x-axis at <0.5 nM; n=1 donor, standard deviation plotted from technical duplicates.
FIG. 56: INX-SM-2 and INX-SM-7 show inhibition in IL-1β. Average Cytokine levels measured at 24 hr for human PBMCS incubated with 1 ng/ml LPS and serial dilutions (1000-0.16 nM) of steroid payloads, with the no treatment control plotted on the log-scale x-axis at <0.16 nM; n=1, standard deviation plotted from technical duplicates. […]
Average cytokine levels measured at 24 hr for human PBMC incubated with 1 ng/ml LPS and serial dilutions (100-0.032 nM) of glucocorticoid payloads; n=1, mean of technical duplicates.
Average cytokine levels measured at 24 hr for human PBMC incubated with 1 ng/mL LPS and serial dilutions (1000-0.32 nM) of glucocorticoid payloads; n=1, mean of technical duplicates.
Cytokine levels measured at 24 hr for human PBMC incubated with 1 ng/mL LPS and serial dilutions (1000-0.5 nM) of steroid payloads, with the no treatment control plotted on the log-scale x-axis at <0.5 nM; n=1 donor, mean of technical duplicates plotted.
Average cytokine levels for A. hull-1β B. huIL-6 measured at 24 hr for human PBMC incubated with 1 ng/mL LPS and serial dilutions (1000-0.16 nM) of conjugated steroid linker payloads, with the no treatment control plotted on the log-scale x-axis at <0.16 nM; n=1, standard deviation plotted from technical duplicates. Values above the ULOQ (12,500 pg/mL for IL-1b and 150,000 pg/mL for IL-6) were plotted as the extrapolated value.
Average cytokine levels for IL-1β measured at 24 hr for human PBMC incubated with 1 ng/mL LPS and serial dilutions (1000-0.16 nM) of conjugated steroid linker payloads, with the no treatment control plotted on the log-scale x-axis at <0.16 nM; n=1, mean plotted of technical duplicates
Average cytokine levels for IL-1β measured at 24 hr for human PBMC incubated with 1 ng/mL LPS and serial dilutions (1000-0.16 nM) of conjugated steroid linker payloads, with the no treatment control plotted on the log-scale x-axis at <0.16 nM; n=1, mean plotted of technical duplicates.
FIG. 66: Analogs of INX V are potent relative to INX231J. […]

[3] = Experiment 3: free payload 1000-0.2 nM, 24 hr, n=2 donors

SMILES	inhibition of IL-1β production [2]	potency of free payloads (conclusions) [1]	inhibition of IL-6 production [2]	further results
C[C@]12C=CC(=O)C=C1[C@@H](F)C[C@H]1[C@@H]3C[C@H]4O[C@@H](c5ccc(CC6CC7(CC(N)C7)C6)cc5)O[C@@]4(C(=O)CO)[C@@]3(C)C[C@H](O)[C@@]12F (stereo partly drawn) [INX-SM-25, (2S,6aS,6bR,7S,8aS,8bS,10R,11aR,12aS,12bS)-10-(4-((6-aminospiro[3.3]heptan-2-yl)methyl)phenyl)-2,6b-difluoro-7-hydroxy-8b-(2-hydroxyacetyl)-6a,8a-dimethyl-1,2,6a,6b,7,8,8a,8b,11a,12,12a,12b-dodecahydro-4H-naphtho[2′,1′:4,5]indeno[1,2-d][1,3]dioxol-4-one]	robust inhibition	–	–	inhibition of IL-1β production ([1]; Experiment 8: free payload 1000-0.5 nM): robust inhibition in IL-1B production
C[C@]12C=CC(=O)C=C1CC[C@@H]1[C@@H]2[C@@H](O)C[C@@]2(C)[C@H]1C[C@H]1O[C@@H](c3ccc(CC4COC5(CNC5)C4)cc3)O[C@]12C(=O)CO (stereo partly drawn) [INX-SM-31, (6aR,6bS,7S,8aS,8bS,11aR,12aS,12bS)-10-(4-((5-oxa-2-azaspiro[3.4]octan-7-yl)methyl)phenyl)-7-hydroxy-8b-(2-hydroxyacetyl)-6a,8a-dimethyl-1,2,6a,6b,7,8,8a,8b,11a,12,12a,12b-dodecahydro-4H-naphtho[2′,1′:4,5]indeno[1,2-d][1,3]dioxol-4-one]	inhibit	lowest potency among the R stereoisomers of the series	inhibit	inhibition of IL-1β production [1, 3]: dose dependent inhibition in IL-1β production; also recorded: the least potent compound among these compounds tested
C[C@]12C=CC(=O)C=C1CC[C@@H]1[C@@H]2[C@@H](O)C[C@@]2(C)[C@H]1C[C@H]1O[C@@H](c3ccc(CC4CC5(CC(N)C5)C4)cc3)O[C@]12C(=O)CO (stereo partly drawn) [INX-SM-32, (6aR,6bS,7S,8aS,8bS,10R,11aR,12aS,12bS)-10-(4-((6-aminospiro[3.3]heptan-2-yl)methyl)phenyl)-7-hydroxy-8b-(2-hydroxyacetyl)-6a,8a-dimethyl-1,2,6a,6b,7,8,8a,8b,11a,12,12a,12b-dodecahydro-4H-naphtho[2′,1′:4,5]indeno[1,2-d][1,3]dioxol-4-one]	inhibits	–	inhibits	inhibition of IL-1β and IL-6 production ([1]; Experiment 4: free payload 500-1 nM, 24 hr, n=2): dose dependent inhibition in IL-1β and IL-6 production
C[C@]12C=CC(=O)C=C1CC[C@@H]1[C@@H]2[C@@H](O)C[C@@]2(C)[C@H]1C[C@H]1O[C@@H](c3ccc(CC4(N)COC4)cc3)O[C@]12C(=O)CO [INX-SM-33, (6aR,6bS,7S,8aS,8bS,10R,11aR,12aS,12bS)-10-(4-((3-aminooxetan-3-yl)methyl)phenyl)-7-hydroxy-8b-(2-hydroxyacetyl)-6a,8a-dimethyl-1,2,6a,6b,7,8,8a,8b,11a,12,12a,12b-dodeca hydro-4H-naphtho[2′,1′:4,5]indeno[1,2-d][1,3]dioxol-4-one]	modest inhibition	lowest potency among the R stereoisomers of the series	modest inhibition	inhibition of IL-1β and IL-6 production ([1]; Experiment 5: free payload 1000-0.5 nM, 24 hr): modest inhibition of cytokine production
C[C@]12C=CC(=O)C=C1CC[C@@H]1[C@@H]2[C@@H](O)C[C@@]2(C)[C@H]1C[C@H]1CN(c3ccc(CC45CC(N)(C4)C5)cc3)C[C@]12C(=O)CO [INX-SM-34, (6aR,6bS,7S,8aS,8bS,11aR,12aS,12bS)-10-(4-((3-aminobicyclo[1.1.1]pentan-1-yl)methyl)phenyl)-7-hydroxy-8b-(2-hydroxyacetyl)-6a,8a-dimethyl-1,6a,6b,7,8,8a,8b,9,10,11,11a,12,12a,12b-tetradecahydronaphtho[2′,1′:4,5]indeno[1,2-c]pyrrol-4 (2H)-one 2,2,2-trifluoroacetate]	weakly inhibit	–	weakly inhibit	inhibition of IL-1β and IL-6 [1]: weakly inhibit IL-1β and IL-6
C[C@]12C=CC(=O)C=C1CC[C@@H]1[C@@H]2[C@@H](O)C[C@@]2(C)[C@H]1C[C@H]1O[C@@H](c3ccc(CC4(N)CC(F)(F)C4)cc3)O[C@]12C(=O)CO [INX-SM-35, (6aR,6bS,7S,8aS,8bS,10R,11aR,12aS,12bS)-10-(4-((1-amino-3,3-difluorocyclobutyl)methyl)phenyl)-7-hydroxy-8b-(2-hydroxyacetyl)-6a,8a-dimethyl 1,2,6a,6b,7,8,8a,8b,11a,12,12a,12b-dodecahydro-4H-naphtho[2′,1′:4,5]indeno[1,2-d][1,3]dioxol-4-one]	inhibit	–	inhibit	inhibition of IL-1β production [1, 3]: dose dependent inhibition in IL-1β production
C[C@]12C=CC(=O)C=C1CC[C@@H]1[C@@H]2[C@@H](O)C[C@@]2(C)[C@H]1C[C@H]1CN(c3ccc(CC4CC5(CC(N)C5)C4)cc3)C[C@]12C(=O)CO (stereo partly drawn) [INX-SM-37, (6aR,6bS,7S,8aS,8bS,11aR,12aS,12bS)-10-(4-((6-aminospiro[3.3]heptan-2-yl)methyl)phenyl)-7-hydroxy-8b-(2-hydroxyacetyl)-6a,8a-dimethyl-1,6a,6b,7,8,8a,8b,9,10,11,11a,12,12a,12b-tetradecahydronaphtho[2′,1′:4,5]indeno[1,2-c]pyrrol-4 (2H)-one]	weakly inhibits	lowest potency among the R stereoisomers of the series	–	inhibition of IL-1β ([1]; Experiment 11: free payloads 1000-0.15 nM): weakly inhibits IL-1β
C[C@]12C=CC(=O)C=C1CC[C@@H]1[C@@H]2[C@@H](O)C[C@@]2(C)[C@H]1C[C@H]1CN(c3ccc(Cc4cccc(N)c4)cc3)C[C@]12C(=O)CO [INX-SM-40, (6aR,6bS,7S,8aS,8bS,11aR,12aS,12bS)-10-(4-(3-aminobenzyl)phenyl)-7-hydroxy-8b-(2-hydroxyacetyl)-6a,8a-dimethyl-1,6a,6b,7,8,8a,8b,9,10,11,11a,12,12a,12b-tetradecahydronaphtho[2′,1′:4,5]indeno[1,2-c]pyrrol-4 (2H)-one]	weakly inhibit	–	weakly inhibit	inhibition of IL-1β and IL-6 [1]: weakly inhibit IL-1β and IL-6
